Test system: CVD (CHD or stroke)
Test: WOSCOPS: SNP by pravastatin treatment interaction, logistic regression (synergy index), CVD endpoint
Type: in vivo, human
Details: for OR: WOSCOPS; for WOSCOPS OR: endpoint CVD
Excerpt: CARE was a secondary prevention trial and WOSCOPS was a primary prevention trial.
The CHD endpoint was defined in the analyses herein of CARE as a composite endpoint of fatal CHD, definite non-fatal MI, or revascularization, and was defined in the analyses herein of WOSCOPS as a composite endpoint of death from CHD, nonfatal MI, or revascularization. In both the CARE and WOSCOPS analyses herein, the CVD endpoint was defined as a composite endpoint of CHD or stroke. […] Revascularization, which can include percutaneous transluminal coronary angioplasty (PTCA), stent placement, and coronary artery bypass graft (CABG), are medical interventions that indicate the presence of CHD.
Cohort and case-only study designs were used to identify SNPs associated with response to statin treatment.
For each SNP, a logistic regression model having treatment status as the dependent variable and SNP as the independent predictor variable was performed, with terms for age, sex and race included in the model as covariates. The anti-log of the regression coefficient corresponding to the SNP is an estimate of the synergy index (SI) (Davis et al., “Imputing gene-treatment interactions when the genotype distribution is unknown using case-only and putative placebo analyses-a new method for the Genetics of Hypertension Associated Treatment (GenHAT) study”, Statistics in Medicine 23: (2004), pages 2413-2427). The SI is a ratio of odds ratios: for example in the CARE and WOSCOPS studies, the SI represents the factor by which the odds-ratio of statin treatment, compared with placebo, among major homozygous individuals is multiplied by in order to obtain the odds-ratio of treatment vs. placebo among heterozygous individuals; and multiplied by a second time to obtain the odds-ratio of treatment vs. placebo in minor homozygous individuals. […] In a randomized clinical trial, genotype and treatment are independent by design.

CC[C@H](C)C(=O)O[C@H]1C[C@H](O)C=C2C=C[C@H](C)[C@H](CC[C@@H](O)C[C@@H](O)CC(=O)O)[C@H]21 [Pravastatin, pravastatin]
OR (rs1884902 allele C REC Imputed): 1.796 | OR (rs1913201 allele G ADD Imputed): 0.7632 | OR (rs1913201 allele G DOM Imputed): 0.5772 | OR (rs1944279 allele A ADD Imputed): 1.444 | OR (rs1987179 allele T DOM Imputed): 0.6667 | OR (rs1990023 allele T DOM Imputed): 0.6024 | OR (rs2016194 allele G DOM Imputed): 0.602 | OR (rs2024789 allele C ADD Imputed): 0.7464 | OR (rs2024902 allele A ADD Imputed): 2.395 | OR (rs2024902 allele A DOM Imputed): 2.659 | OR (rs2025107 allele A ADD Imputed): 2.387 | OR (rs2025107 allele A DOM Imputed): 2.904 | OR (rs2025108 allele T ADD Imputed): 2.387 | OR (rs2025108 allele T DOM Imputed): 2.904 | OR (rs2062448 allele T ADD Imputed): 0.4148 | OR (rs2062448 allele T DOM Imputed): 0.4153 | OR (rs2063591 allele C ADD Imputed): 0.7711 | OR (rs2063591 allele C DOM Imputed): 0.5884 | OR (rs2065604 allele C DOM Imputed): 0.4711 | OR (rs2066238 allele T DOM Imputed): 0.6821 | OR (rs2068051 allele G ADD Imputed): 0.6426 | OR (rs2095586 allele A DOM Imputed): 1.351 | OR (rs2108426 allele C DOM Imputed): 0.5994 | OR (rs2110664 allele A DOM Imputed): 1.697 | OR (rs2132242 allele A DOM Imputed): 0.6291 | OR (rs2151644 allele T DOM Imputed): 0.4711 | OR (rs2158958 allele A DOM Imputed): 0.6021 | OR (rs2158961 allele G DOM Imputed): 0.6113 | OR (rs2164099 allele G ADD Imputed): 1.424 | OR (rs2173254 allele G REC Imputed): 0.3756 | OR (rs2188079 allele C ADD Imputed): 1.5 | OR (rs2190304 allele G REC Imputed): 0.628 | OR (rs2190597 allele T DOM Imputed): 0.7825 | OR (rs2190598 allele T DOM Imputed): 0.6021 | OR (rs2190600 allele A DOM Imputed): 0.6022 | OR (rs2218084 allele T REC Imputed): 4.673 | OR (rs2290193, rec, Caseonly, CVD, pravastatin vs placebo): 0.35 | OR (rs2626130, add, Caseonly, CVD, pravastatin vs placebo): 1.37 | OR (rs4289236, add, Caseonly, CVD, pravastatin vs placebo): 1.49 | OR (rs4611134, rec, Caseonly, CVD, pravastatin vs placebo): 1.56 | OR (rs4643388, add, Caseonly, CVD, pravastatin vs placebo): 1.38 | OR (rs6911817, add, Caseonly, CVD, pravastatin vs placebo): 5.32 | OR (rs7327364, dom, Caseonly, CVD, pravastatin vs placebo): 0.64 | OR (rs7497613, rec, Caseonly, CVD, pravastatin vs placebo): 0.43 | OR (rs7767024, add, Caseonly, CVD, pravastatin vs placebo): 1.69 | OR (rs8051893, dom, Caseonly, CVD, pravastatin vs placebo): 0.63 | OR (rs9658127, add, Caseonly, CVD, pravastatin vs placebo): 5.32 | OR (rs10088524, dom, Caseonly, CVD, pravastatin vs placebo): 1.80 | OR (rs11925875, dom, Caseonly, CVD, pravastatin vs placebo): 0.57 | OR (rs17076972 allele C REC Imputed): 1.85 | OR (rs17189710 allele T ADD Imputed): 1.429 | OR (rs17196143 allele A ADD Imputed): 1.543 | OR (rs17353809 allele G ADD Imputed): 1.616 | OR (rs17446418 allele G DOM Imputed): 0.6878 | OR (rs17530747 allele T DOM Imputed): 0.6878 | OR (rs17546598, dom, Caseonly, CVD, pravastatin vs placebo): 2.07 | OR (rs17604285 allele C ADD Imputed): 0.4148 | OR (rs17604285 allele C DOM Imputed): 0.4153 | OR (rs17662322 allele T DOM Imputed): 0.6835 | OR (rs17769826 allele T ADD Imputed): 1.616 | OR (rs17821641 allele T ADD Imputed): 1.571 | WOSCOPS OR (rs151806, source cohort, model dom): 0.67 | WOSCOPS OR (rs205279, source Caseonly, model add): 1.60 | WOSCOPS OR (rs312929, source cohort, model add): 0.79 | WOSCOPS OR (rs316720, source cohort, model add): 0.78 | WOSCOPS OR (rs354342, source Caseonly, model add): 0.62 | WOSCOPS OR (rs610118, source Caseonly, model dom): 0.62 | WOSCOPS OR (rs624460, source cohort, model add): 0.74 | WOSCOPS OR (rs669684, source cohort, model add): 0.77 | WOSCOPS OR (rs945020, source cohort, model dom): 0.72 | WOSCOPS OR (rs1035618, source Caseonly, model add): 1.48 | WOSCOPS OR (rs1051344, source cohort, model dom): 0.64 | WOSCOPS OR (rs1167245, source Caseonly, model dom): 0.51 | WOSCOPS OR (rs1349282, source cohort, model dom): 0.55 | WOSCOPS OR (rs1861326, source Caseonly, model dom): 0.67 | WOSCOPS OR (rs2023650, source Caseonly, model add): 0.62 | WOSCOPS OR (rs2145540, source Caseonly, model dom): 0.70 | WOSCOPS OR (rs2157673, source Caseonly, model add): 1.56 | WOSCOPS OR (rs2231496, source Caseonly, model add): 0.67 | WOSCOPS OR (rs2268650, source Caseonly, model dom): 0.71 | WOSCOPS OR (rs2376764, source Caseonly, model rec): 0.48 | WOSCOPS OR (rs2492367, source cohort, model add): 0.68 | WOSCOPS OR (rs2495295, source Caseonly, model dom): 0.66 | WOSCOPS OR (rs2534752, source cohort, model dom): 1.74 | WOSCOPS OR (rs2695026, source Caseonly, model add): 0.61 | WOSCOPS OR (rs2793086, source Caseonly, model add): 0.72 | WOSCOPS OR (rs2843171, source Caseonly, model dom): 0.61 | WOSCOPS OR (rs3213616, source cohort, model add): 0.62 | WOSCOPS OR (rs3798544, source Caseonly, model dom): 1.78 | WOSCOPS OR (rs4243071, source Caseonly, model rec): 0.41 | WOSCOPS OR (rs4626316, source cohort, model dom): 0.38 | WOSCOPS OR (rs4866354, source Caseonly, model dom): 0.31 | WOSCOPS OR (rs4869033, source Caseonly, model rec): 0.47 | WOSCOPS OR (rs4986146, source cohort, model add): 0.66 | WOSCOPS OR (rs4993917, source Caseonly, model dom): 0.67 | WOSCOPS OR (rs5017584, source Caseonly, model rec): 1.98 | WOSCOPS OR (rs5021480, source Caseonly, model rec): 1.87 | WOSCOPS OR (rs7179134, source cohort, model rec): 3.50 | WOSCOPS OR (rs7612715, source cohort, model add): 0.55 | WOSCOPS OR (rs7671659, source cohort, model dom): 1.43 | WOSCOPS OR (rs9292827, source Caseonly, model dom): 0.27 | WOSCOPS OR (rs9375683, source cohort, model dom): 1.31 | WOSCOPS OR (rs9487284, source cohort, model dom): 0.70 | WOSCOPS OR (rs9896077, source cohort, model dom): 0.71 | WOSCOPS OR (rs10088505, source Caseonly, model dom): 1.78 | WOSCOPS OR (rs10444402, source Caseonly, model add): 0.65 | WOSCOPS OR (rs10494924, source Caseonly, model dom): 0.68 | WOSCOPS OR (rs10517923, source Caseonly, model rec): 1.60 | WOSCOPS OR (rs10849442, source Caseonly, model rec): 0.59 | WOSCOPS OR (rs10889215, source cohort, model add): 1.95 | WOSCOPS OR (rs11076320, source Caseonly, model dom): 0.68 | WOSCOPS OR (rs11610993, source Caseonly, model dom): 0.49 | WOSCOPS OR (rs12155847, source Caseonly, model dom): 1.61 | WOSCOPS OR (rs17347854, source Caseonly, model dom): 0.62 | WOSCOPS OR (rs17740227, source Caseonly, model dom): 1.53 | WOSCOPS OR (rs33910446, source Caseonly, model rec): 2.23 | WOSCOPS OR (rs72746987, source Caseonly, model dom): 0.34

Reference: patent publication US10563263B2, “Genetic polymorphisms associated with statin response and cardiovascular diseases, methods of detection and uses thereof” (CELERA CORPORATION, priority 2010, dated 2020)
